# According to patent US9738664B2, “Boronic acid inhibitors of HIV protease” (WISCONSIN ALUMNI RESEARCH FOUNDATION, priority 2014, dated 2017):
# Assays:
# HIV-1 protease = target: T1, HIV-1 protease (Human immunodeficiency virus type 1 group M subtype B, UniProt P03367, C567A/C595A/L533I/L563I/Q507K); experiment: biochemical
# T1 construct: Double-stranded, linear DNA encoding HIV-1 protease; 8xHis (self-cleavable) (N, cleaved yes); made in house
# Protocol: This peptide was used as a fluorogenic substrate for HIV protease by monitoring the fluorescence of the Edans group (5-((2-aminoethyl)amino)naphthalene-1-sulfonic acid) upon substrate hydrolysis and separation from the quenching Dabcyl group (4-((4-(dimethylamino)phenyl)azo)benzoic acid, succinimidyl ester. [6] Substrate was dissolved at 1 mM by sonication in DMF containing TFA (0.1% v/v). Stock solutions of each putative HIV protease inhibitor were generated by dissolving the inhibitor in DMF to a concentration of 50 mM and diluting in DMF to ˜100×stocks of the final assay concentrations. Assays were performed in 50 mM sodium acetate buffer, pH 5.0, containing NaCl (100 mM). Wells in a microtiter plate were charged initially with inhibitor (various concentrations) and substrate (final concentration: 10 μM). HIV protease was then added (final concentration: 50-150 μM). Reaction velocities in the assay solutions (total volume: 200 μL) were measured in quadruplicate at 7-9 inhibitor concentrations including no-inhibitor and no-enzyme controls.
# HIV = experiment: Inhibition of HIV cytopathic toxicity in MT-4 cells (MTS cell viability); type: cell-based; conditions: virus from pNL4-3 at 100×TCID50, 7 days, MTS assay (FIG. 3)
# Protocol: The ability of B-darunavir to inhibit the cytopathic toxicity of HIV was determined by standard methods (11). Briefly, both human lymphocyte cell line MT-4 and plasmid pNL4-3, which directs the production of infectious virions (12), were obtained from the NIH AIDS Reagent Program. […] Then, MT-4 cells were transfected with plasmid pNL4-3. Maximal virus production was detected on Day 6 post-transfection. Viral inhibition assays were conducted with 25,000 MT-4 cells in 200 μL of RPMI medium containing fetal bovine serum (10% v/v). Infections were conducted with virus at 100×TCID50 by resuspending pelleted cells in 500 μL of virus-containing medium and incubating for 4 h prior to plating with B-darunavir. After 7 days, the loss of HIV cytopathic toxicity was assessed by measuring cell viability using the MTS assay from Promega (Madison, Wis.).
# MT-4 cells = experiment: Toxicity for MT-4 cells (growth inhibition); type: cell-based, human; conditions: concentrations up to 1 mM
Compound,Ki (HIV-1 protease),concentration that inhibits the toxicity of HIV for human lymphocytes (HIV),inhibition of the growth of MT-4 cells (toxicity) (MT-4 cells)
CC(C)CN(C[C@@H](O)[C@H](Cc1ccccc1)NC(=O)O[C@H]1CCOC1)S(=O)(=O)c1ccc(B(O)O)cc1 [B-Amprenavir (6)],2.1 ± 0.3 pM,,
CC(C)CN(C[C@@H](O)[C@H](Cc1ccccc1)NC(=O)O[C@H]1CO[C@H]2OCC[C@H]21)S(=O)(=O)c1ccc(B(O)O)cc1 [B-Darunavir (9)],,≥ 100 nM,not to cause a significant inhibition of the growth of MT-4 cells
